Test results from paper PMC6271870, “Study on the Synthesis, Biological Activity and Spectroscopy of Naphthalimide-Diamine Conjugates” (Molecules, 2014).

Tested on: cancer of colon HCT116
Test: MTT assay, HCT116 cells
Type: cell-based
Details: Homo sapiens, HCT-116, aminoguanidine present, mean ± SD of three determinations, max 50 µM tested
Experimental: (§1) The cytotoxicities of the novel conjugates were assessed in vitro by the MTT assay in the presence of aminoguanidine (an inhibitor of amine oxidase) against three cell lines, human leukemia K562, cancer of colon HCT116 and human normal hepatocyte QSG-7701 [34]. […] Thus, compound 7f was selected for further investigation. Cell lines, K562, 7721 and HCT116 were obtained from American Type Culture Collection (ATCC, Shanghai, China). Cells were cultured in RPMI1640, supplemented with 10% heat-inactivated fetal calf serum (FCS), antibiotics (penicillin, 100 units/mL; streptomycin sulfate, 100 μg/mL) at 37 °C, in an atmosphere of 95% air and 5% CO2 under humidified conditions. Aminoguanidine (1 mM) was added as an inhibitor of amine oxidase derived from FCS and had no effect on the various parameters of the cell measured in this study. In addition, exponentially growing HCT116 or 7721 cells were seeded into 96-well plates at 5000 cells/well and allowed to attach overnight, and then 100 μL of MTT (1 mg/mL) was added. After incubation for 4 h at 37 °C, the MTT solution was removed and the remaining formazan crystals were dissolved with 150 μL DMSO in each well. The absorbance of each well was then read at 570 nm.
In the case of `CN(C)CCN1C(=O)c2cccc3cc(N)cc(c23)C1=O` [Amonafide, amonafide, reference compound], the IC50 is reported as 6.86 ± 1.89 µM.
Work on `Cl.Cl.NCCNCCCN1C(=O)c2cccc3cccc(c23)C1=O` [Compound 7a, 2-[3-(2-Aminoethylamino)propyl]1H-benz-[de]isoquinoline-1,3(2H)-dione dihydrochloride] yielded an IC50 of 19.3 ± 4.39 µM.
Work on `Cl.Cl.NCCNCCCCN1C(=O)c2cccc3cccc(c23)C1=O` [Compound 7b, 2-[4-(2-Aminoethylamino)butyl]1H-benz-[de]isoquinoline-1,3(2H)-dione dihydrochloride] yielded an IC50 of 13.9 ± 2.68 µM.
With `Cl.Cl.NCCNCCCCCN1C(=O)c2cccc3cccc(c23)C1=O` [Compound 7c, 2-[5-(2-Aminoethylamino)pentyl]1H-benz-[de]isoquinoline-1,3(2H)-dione dihydrochloride] the IC50 was 9.89 ± 1.11 µM.
Compound `Cl.Cl.NCCCNCCCN1C(=O)c2cccc3cccc(c23)C1=O` [Compound 7d, 2-[3-(3-Aminopropylamino)propyl]1H-benz-[de]isoquinoline-1,3(2H)-dione dihydrochloride] has an IC50 of 8.95 ± 3.87 µM.
With `Cl.Cl.NCCCNCCCCCN1C(=O)c2cccc3cccc(c23)C1=O` [Compound 7e, 2-[5-(3-Aminopropylamino)pentyl]1H-benz-[de]isoquinoline-1,3(2H)-dione dihydrochloride] the IC50 was 9.52 ± 3.31 µM.
`Cl.Cl.NCCCCNCCCCN1C(=O)c2cccc3cccc(c23)C1=O` [Compound 7g, 2-[4-(4-Aminobutylamino)butyl]1H-benz-[de]isoquinoline-1,3(2H)-dione dihydrochloride] gave an IC50 of 13.9 ± 2.54 µM.
`Cl.Cl.NCCCCNCCCCCN1C(=O)c2cccc3cccc(c23)C1=O` [Compound 7h, 2-[5-(4-Aminobutylamino)pentyl]1H-benz-[de]isoquinoline-1,3(2H)-dione dihydrochloride] gave an IC50 of 16.2 ± 4.28 µM.
`Cl.Cl.NCCCCCCNCCCN1C(=O)c2cccc3cccc(c23)C1=O` [Compound 7i, 2-[3-(6-Aminohexylamino)propyl]1H-benz-[de]isoquinoline-1,3(2H)-dione dihydrochloride] gave an IC50 of 11 ± 1.71 µM.
`Cl.Cl.NCCCCCCNCCCCN1C(=O)c2cccc3cccc(c23)C1=O` [Compound 7j, 2-[4-(6-Aminohexylamino)butyl]1H-benz-[de]isoquinoline-1,3(2H)-dione dihydrochloride] gave an IC50 of 16.4 ± 1.75 µM.
In the case of `Cl.Cl.NCCCCCCNCCCCCN1C(=O)c2cccc3cccc(c23)C1=O` [Compound 7k, 2-[5-(6-Aminohexylamino)pentyl]1H-benz-[de]isoquinoline-1,3(2H)-dione dihydrochloride], the IC50 is reported as 9.95 ± 1.81 µM.

Tested on: human normal hepatocyte QSG-7701
Test: MTT assay, QSG-7701 cells
Type: cell-based
Details: QSG7701, aminoguanidine present, mean ± SD of three determinations, max 50 µM tested
Experimental: as §1
With `CN(C)CCN1C(=O)c2cccc3cc(N)cc(c23)C1=O` [Amonafide, amonafide, reference compound] the IC50 was 20.3 ± 2.43 µM.
In the case of `Cl.Cl.NCCNCCCN1C(=O)c2cccc3cccc(c23)C1=O` [Compound 7a, 2-[3-(2-Aminoethylamino)propyl]1H-benz-[de]isoquinoline-1,3(2H)-dione dihydrochloride], the IC50 is reported as greater than 50 µM.
With `Cl.Cl.NCCNCCCCN1C(=O)c2cccc3cccc(c23)C1=O` [Compound 7b, 2-[4-(2-Aminoethylamino)butyl]1H-benz-[de]isoquinoline-1,3(2H)-dione dihydrochloride] the IC50 was 33.9 ± 4.32 µM.
Compound `Cl.Cl.NCCNCCCCCN1C(=O)c2cccc3cccc(c23)C1=O` [Compound 7c, 2-[5-(2-Aminoethylamino)pentyl]1H-benz-[de]isoquinoline-1,3(2H)-dione dihydrochloride] has an IC50 greater than 50 µM.
For `Cl.Cl.NCCCNCCCN1C(=O)c2cccc3cccc(c23)C1=O` [Compound 7d, 2-[3-(3-Aminopropylamino)propyl]1H-benz-[de]isoquinoline-1,3(2H)-dione dihydrochloride], the IC50 was 8.04 ± 3.35 µM.
Work on `Cl.Cl.NCCCNCCCCCN1C(=O)c2cccc3cccc(c23)C1=O` [Compound 7e, 2-[5-(3-Aminopropylamino)pentyl]1H-benz-[de]isoquinoline-1,3(2H)-dione dihydrochloride] yielded an IC50 of 22.2 ± 0.67 µM.
`Cl.Cl.NCCCCNCCCCN1C(=O)c2cccc3cccc(c23)C1=O` [Compound 7g, 2-[4-(4-Aminobutylamino)butyl]1H-benz-[de]isoquinoline-1,3(2H)-dione dihydrochloride] gave an IC50 of 12 ± 4.07 µM.
In the case of `Cl.Cl.NCCCCNCCCCCN1C(=O)c2cccc3cccc(c23)C1=O` [Compound 7h, 2-[5-(4-Aminobutylamino)pentyl]1H-benz-[de]isoquinoline-1,3(2H)-dione dihydrochloride], the IC50 is reported as 18.8 ± 4.94 µM.
With `Cl.Cl.NCCCCCCNCCCN1C(=O)c2cccc3cccc(c23)C1=O` [Compound 7i, 2-[3-(6-Aminohexylamino)propyl]1H-benz-[de]isoquinoline-1,3(2H)-dione dihydrochloride] the IC50 was greater than 50 µM.
`Cl.Cl.NCCCCCCNCCCCN1C(=O)c2cccc3cccc(c23)C1=O` [Compound 7j, 2-[4-(6-Aminohexylamino)butyl]1H-benz-[de]isoquinoline-1,3(2H)-dione dihydrochloride] showed an IC50 of 13.1 ± 3.94 µM.
`Cl.Cl.NCCCCCCNCCCCCN1C(=O)c2cccc3cccc(c23)C1=O` [Compound 7k, 2-[5-(6-Aminohexylamino)pentyl]1H-benz-[de]isoquinoline-1,3(2H)-dione dihydrochloride] gave an IC50 of 14.7 ± 3.91 µM.

Tested on: not given
Test: not given
Details: not given
Work on `Cl.Cl.NCCNCCCN1C(=O)c2cccc3cccc(c23)C1=O` [Compound 7a, 2-[3-(2-Aminoethylamino)propyl]1H-benz-[de]isoquinoline-1,3(2H)-dione dihydrochloride] yielded a melting point of 233.4 to 235.1 °C.
With `Cl.Cl.NCCNCCCCN1C(=O)c2cccc3cccc(c23)C1=O` [Compound 7b, 2-[4-(2-Aminoethylamino)butyl]1H-benz-[de]isoquinoline-1,3(2H)-dione dihydrochloride] the melting point was 243.1 to 244.1 °C.
`Cl.Cl.NCCNCCCCCN1C(=O)c2cccc3cccc(c23)C1=O` [Compound 7c, 2-[5-(2-Aminoethylamino)pentyl]1H-benz-[de]isoquinoline-1,3(2H)-dione dihydrochloride] gave a melting point of 233.8 to 235.1 °C.
For `Cl.Cl.NCCCNCCCN1C(=O)c2cccc3cccc(c23)C1=O` [Compound 7d, 2-[3-(3-Aminopropylamino)propyl]1H-benz-[de]isoquinoline-1,3(2H)-dione dihydrochloride], the melting point was 233.1 to 234.2 °C.
`Cl.Cl.NCCCNCCCCCN1C(=O)c2cccc3cccc(c23)C1=O` [Compound 7e, 2-[5-(3-Aminopropylamino)pentyl]1H-benz-[de]isoquinoline-1,3(2H)-dione dihydrochloride] gave a melting point of 238.6 to 239.8 °C.
Compound `Cl.Cl.NCCCCNCCCCN1C(=O)c2cccc3cccc(c23)C1=O` [Compound 7g, 2-[4-(4-Aminobutylamino)butyl]1H-benz-[de]isoquinoline-1,3(2H)-dione dihydrochloride] has a melting point of 226.7 to 228.3 °C.
Work on `Cl.Cl.NCCCCNCCCCCN1C(=O)c2cccc3cccc(c23)C1=O` [Compound 7h, 2-[5-(4-Aminobutylamino)pentyl]1H-benz-[de]isoquinoline-1,3(2H)-dione dihydrochloride] yielded a melting point of 236.6 to 237.9 °C.
For `Cl.Cl.NCCCCCCNCCCN1C(=O)c2cccc3cccc(c23)C1=O` [Compound 7i, 2-[3-(6-Aminohexylamino)propyl]1H-benz-[de]isoquinoline-1,3(2H)-dione dihydrochloride], the melting point was 230.6 to 231.8 °C.
`Cl.Cl.NCCCCCCNCCCCN1C(=O)c2cccc3cccc(c23)C1=O` [Compound 7j, 2-[4-(6-Aminohexylamino)butyl]1H-benz-[de]isoquinoline-1,3(2H)-dione dihydrochloride] gave a melting point of 235.9 to 237.2 °C.
For `Cl.Cl.NCCCCCCNCCCCCN1C(=O)c2cccc3cccc(c23)C1=O` [Compound 7k, 2-[5-(6-Aminohexylamino)pentyl]1H-benz-[de]isoquinoline-1,3(2H)-dione dihydrochloride], the melting point was 229.1 to 230.3 °C.

Tested on: human leukemia K562
Test: MTT assay, K562 cells
Type: cell-based
Details: 48 h, aminoguanidine present, mean ± SD of three determinations, max 50 µM tested
Experimental: as §1, with “Chemosensitivity” for “In addition, exponentially growing HCT116 or 7721 cells were seeded into 96-well plates at 5000 cells/well and allowed to attach overnight, and then 100 μL of MTT (1 mg/mL)”, “assessed using the 3-(4,5-dimethylthiazol-2-yl)-2,5-diphenyltetrazolium bromide (MTT) assay. […]” for “added.”, “purple” for “MTT solution was removed and the remaining”, “crystals (i.e., a reduced form of MTT) generated from viable cells” for “crystals”, “by adding 100” for “with 150”, “10% sodium dodecyl sulphate (SDS)” for “DMSO”
`CN(C)CCN1C(=O)c2cccc3cc(N)cc(c23)C1=O` [Amonafide, amonafide, reference compound] gave an IC50 of 10.1 ± 2.59 µM.
Work on `Cl.Cl.NCCNCCCN1C(=O)c2cccc3cccc(c23)C1=O` [Compound 7a, 2-[3-(2-Aminoethylamino)propyl]1H-benz-[de]isoquinoline-1,3(2H)-dione dihydrochloride] yielded an IC50 of 48.8 ± 3.93 µM.
For `Cl.Cl.NCCNCCCCN1C(=O)c2cccc3cccc(c23)C1=O` [Compound 7b, 2-[4-(2-Aminoethylamino)butyl]1H-benz-[de]isoquinoline-1,3(2H)-dione dihydrochloride], the IC50 was 25.6 ± 3.74 µM.
Work on `Cl.Cl.NCCNCCCCCN1C(=O)c2cccc3cccc(c23)C1=O` [Compound 7c, 2-[5-(2-Aminoethylamino)pentyl]1H-benz-[de]isoquinoline-1,3(2H)-dione dihydrochloride] yielded an IC50 of 38.8 ± 1.76 µM.
In the case of `Cl.Cl.NCCCNCCCN1C(=O)c2cccc3cccc(c23)C1=O` [Compound 7d, 2-[3-(3-Aminopropylamino)propyl]1H-benz-[de]isoquinoline-1,3(2H)-dione dihydrochloride], the IC50 is reported as 19.7 ± 7.23 µM.
`Cl.Cl.NCCCNCCCCCN1C(=O)c2cccc3cccc(c23)C1=O` [Compound 7e, 2-[5-(3-Aminopropylamino)pentyl]1H-benz-[de]isoquinoline-1,3(2H)-dione dihydrochloride] showed an IC50 of 22.4 ± 1.21 µM.
In the case of `Cl.Cl.NCCCCNCCCCN1C(=O)c2cccc3cccc(c23)C1=O` [Compound 7g, 2-[4-(4-Aminobutylamino)butyl]1H-benz-[de]isoquinoline-1,3(2H)-dione dihydrochloride], the IC50 is reported as 14 ± 3.32 µM.
For `Cl.Cl.NCCCCNCCCCCN1C(=O)c2cccc3cccc(c23)C1=O` [Compound 7h, 2-[5-(4-Aminobutylamino)pentyl]1H-benz-[de]isoquinoline-1,3(2H)-dione dihydrochloride], the IC50 was 15.9 ± 1.53 µM.
`Cl.Cl.NCCCCCCNCCCN1C(=O)c2cccc3cccc(c23)C1=O` [Compound 7i, 2-[3-(6-Aminohexylamino)propyl]1H-benz-[de]isoquinoline-1,3(2H)-dione dihydrochloride] gave an IC50 of 41.4 ± 1.76 µM.
`Cl.Cl.NCCCCCCNCCCCN1C(=O)c2cccc3cccc(c23)C1=O` [Compound 7j, 2-[4-(6-Aminohexylamino)butyl]1H-benz-[de]isoquinoline-1,3(2H)-dione dihydrochloride] gave an IC50 of 12.6 ± 0.81 µM.
`Cl.Cl.NCCCCCCNCCCCCN1C(=O)c2cccc3cccc(c23)C1=O` [Compound 7k, 2-[5-(6-Aminohexylamino)pentyl]1H-benz-[de]isoquinoline-1,3(2H)-dione dihydrochloride] showed an IC50 of 15.9 ± 1.83 µM.
